Patent US20150366836A1, “METHOD AND PHARMACEUTICAL COMPOSITION FOR TREATING COLORECTAL CANCER” (National Dong Hua University, priority 2014, published 2015)

Key:
HT-29 cells [1] = assay: MTT assay cell viability, HT-29 cells; format: cell-based; conditions: Homo sapiens; HT-29 cells, 36 hr treatment
Procedure: (§1) Two cell lines were used in this study, Caco2 cells and HT-29 cells. Both of them are colorectal cancer cells. Caco2 cells and HT-29 cells were maintained in DMEM (or RPMI) supplemented with 20% or 10% fetal bovine serum (FBS; GIBCO), pH 7.4 at 37° C. with continuous circulation of 5% CO2 incubator. The medium was changed every 2 days and the cells were trypsinized using trypsin/EDTA when reaching 80%-90% confluence.
(§2) In this example, the effects of HCD, PG, and 5-FU on the viability of Caco2 cells and HT-29 cells were examined. The MTT assay was employed for this purpose. The MTT (3-(4-,5-dimethylthiazol-2-yl)-2,5-diphenyltetrazolium bromide) assay is a common colorimetric method in the field for cell viability analysis. MTT (yellow tetrazolium salt) is reduced to a purple formazan by living cells and detection to the purple formazan can be calculated as the cell viability.
(§3) Briefly, cells (Caco2 or HT-29) were seeded in 96-well plate (7×10^3 cell per well) and incubated overnight (37° C., 5% CO2).
(§4) On the other hand, in the pretreatment analysis, cells (Caco2 or HT-29) were seeded in 96-well plate (7×10^3 cell per well) and incubated overnight (37° C., 5% CO2). In according to the treatments listed in the Table 1, Cells were pre-treated by HCD or PG for 6, 12, 24, 36, or 48 hr and then were treated by 5-FU for additional 24 hr.

[2] = test system: mouse bearing inflammatory bowel disease (IBD), AOM/DSS induced; assay: Mouse model bearing IBD (AOM/DSS induced), body weight and H&E staining of intestine; format: in vivo, C57/BL6 mice
Procedure: The animal experiments were approved by the National Dong-Hwa University Animal Ethics Committee and the experimental protocols were used according to the “Guide for the Care and Use of Laboratory Animals” of National Dong-Hwa University. On day 0, C57/BL6 mice (6-8 weeks old) were weighted and injected (intraperitoneal; i.p.) with 10 mg/kg body weight of azoxymethane (AOM) and then fed with 2% Dextran sodium sulfate solution (DSS solution) via water every day for 7 days. On day 8, the 2% DSS solution was changed to normal water for another 7 days. The cycle of DSS solution and water was repeated and the induction procedure was completed on day 35.
After the establishment of IBD in the experimental mice (on day 35), the mice were injected (i.p.) with 5-FU (15 mg/kg body weight) or HCD (0.64, 1.6, or 6.4 mg/kg body weight) once every three days for additional 30 days. Then, the mice were sacrificed. The colon, spleen, liver, and kidney thereof were immediately removed, observed, and further examined by H&E staining.

Caco2 cells [3] = assay: MTT assay cell viability, Caco2 cells; format: cell-based; conditions: Homo sapiens, Caco-2; Caco2 cells, 48 hr treatment
Procedure: as §1, §2, §3, §4

HT-29 cells [4] = assay: Cell cycle analysis by flow cytometer (PI staining), HT-29 cells; format: cell-based
Procedure: (§5) The results of Example 2 in cell viability hinted the effects of HCD, PG, and 5-FU on arresting cell cycle. In this example, the phase of cell cycle of Caco2 and HT-29 cells after the treatment listed in Table 1 was determined by flow cytometer. Briefly, 7×10^4 cells per well were inoculated in 12-wells plate and incubated overnight at 37° C., 5% CO2. Then, cells were treated according to the treatment listed in Table 1 by indicated time period. After treatment, cells were harvested by trypsin and fixed with 70% ethanol at −20° C. for at least 3 hr. The cells were washed in cold PBS twice and then incubated with 1 mL (v/v) staining solution (20 μg/mL propidium iodide (PI), 0.1% Triton X-100, 0.2 mg/mL Rnase) at 37° C. for 30 minutes. Lastly, cells were analyzed by flow cytometer (Cytomics™ FC500, Backman, Fullerton, Calif., USA). Data from 10,000 cells were collected for each experimental group.

Caco2 cells [5] = assay: Cell cycle analysis by flow cytometer (PI staining), Caco2 cells; format: cell-based
Procedure: as §5

For O=c1[nH]cc(F)c(=O)[nH]1 [5-FU, 5-Fluorouracil], the IC50 (HT-29 cells [1]) was 50 µM, the “intestine villus arrangement (H&E staining)” value ([2]; 15 mg/kg body weight i.p.) was “irregular arrangement of villus” and the “lymph node (H&E staining)” value ([2]; 15 mg/kg body weight i.p.) was “enlarged”. The body weight ([2]; 15 mg/kg body weight i.p. once every three days, 30 days) was “initially reduced”, the IC50 (Caco2 cells [3]) was 100 µM and the “cell cycle arrest at sub-G1 phase vs control (in words)” value (HT-29 cells [4]; HT-29) was “increased cell cycle arrest at sub-G1 phase”. The “G0/G1 (%)” value (HT-29 cells [4]; HT-29, 0.5 μM, 24 hr) was 40.05 ± 0.35 %, the “G2/M (%)” value (HT-29 cells [4]; HT-29, 0.5 μM, 24 hr) was 17.45 ± 3.04% and the “S (%)” value (HT-29 cells [4]; HT-29, 0.5 μM, 24 hr) was 28.65 ± 1.20 %. The “Sub G1 (%)” value (HT-29 cells [4]; HT-29, 0.5 μM, 24 hr) was 6.75 ± 0.35%, the “G0/G1 (%)” value (HT-29 cells [4]; HT-29, 0.5 μM, 36 hr) was 46.15 ± 1.34 % and the “G2/M (%)” value (HT-29 cells [4]; HT-29, 0.5 μM, 36 hr) was 8.65 ± 1.48 %. The “S (%)” value (HT-29 cells [4]; HT-29, 0.5 μM, 36 hr) was 20.05 ± 1.91%, the “Sub G1 (%)” value (HT-29 cells [4]; HT-29, 0.5 μM, 36 hr) was 21.8 ± 5.09% and the “G0/G1 (%)” value (HT-29 cells [4]; HT-29, 2 μM, 24 hr) was 50.3 ± 0.85%. The “G2/M (%)” value (HT-29 cells [4]; HT-29, 2 μM, 24 hr) was 9.15 ± 0.78 %, the “S (%)” value (HT-29 cells [4]; HT-29, 2 μM, 24 hr) was 26.15 ± 1.77 % and the “Sub G1 (%)” value (HT-29 cells [4]; HT-29, 2 μM, 24 hr) was 7.75 ± 0.21%. The “G0/G1 (%)” value (HT-29 cells [4]; HT-29, 2 μM, 36 hr) was 36.65 ± 1.06 %, the “G2/M (%)” value (HT-29 cells [4]; HT-29, 2 μM, 36 hr) was 1.85 ± 0.5 % and the “S (%)” value (HT-29 cells [4]; HT-29, 2 μM, 36 hr) was 17.1 ± 2.12%. The “Sub G1 (%)” value (HT-29 cells [4]; HT-29, 2 μM, 36 hr) was 40.1 ± 1.69 %, the “G0/G1 (%)” value (HT-29 cells [4]; HT-29, 5 μM, 24 hr) was 56.65 ± 6.01% and the “G2/M (%)” value (HT-29 cells [4]; HT-29, 5 μM, 24 hr) was 9.4 ± 3.68 %. For the same molecule, the “S (%)” value (HT-29 cells [4]; HT-29, 5 μM, 24 hr) was 21.45 ± 2.33 %, the “Sub G1 (%)” value (HT-29 cells [4]; HT-29, 5 μM, 24 hr) was 6.85 ± 0.64% and the “G0/G1 (%)” value (HT-29 cells [4]; HT-29, 5 μM, 36 hr) was 39.1 ± 5.66 %. The “G2/M (%)” value (HT-29 cells [4]; HT-29, 5 μM, 36 hr) was 1.05 ± 0.21%, the “S (%)” value (HT-29 cells [4]; HT-29, 5 μM, 36 hr) was 12.5 ± 0.71% and the “Sub G1 (%)” value (HT-29 cells [4]; HT-29, 5 μM, 36 hr) was 42.6 ± 5.37 %. The “cell cycle arrest at sub-G1 phase vs control (in words)” value (Caco2 cells [5]; Caco2) was “increased cell cycle arrest at sub-G1 phase”, the “G0/G1 (%)” value (Caco2 cells [5]; Caco2, 0.5 μM, 36 hr) was 46.15 ± 1.34 % and the “G2/M (%)” value (Caco2 cells [5]; Caco2, 0.5 μM, 36 hr) was 8.65 ± 1.48 %. The “S (%)” value (Caco2 cells [5]; Caco2, 0.5 μM, 36 hr) was 20.05 ± 1.91%, the “Sub G1 (%)” value (Caco2 cells [5]; Caco2, 0.5 μM, 36 hr) was 21.8 ± 5.09% and the “G0/G1 (%)” value (Caco2 cells [5]; Caco2, 0.5 μM, 48 hr) was 46.15 ± 1.34%. For the same molecule, the “G2/M (%)” value (Caco2 cells [5]; Caco2, 0.5 μM, 48 hr) was 1.5 ± 0.14 %, the “S (%)” value (Caco2 cells [5]; Caco2, 0.5 μM, 48 hr) was 13.65 ± 1.34% and the “Sub G1 (%)” value (Caco2 cells [5]; Caco2, 0.5 μM, 48 hr) was 20.9 ± 3.25%. The “G0/G1 (%)” value (Caco2 cells [5]; Caco2, 2 μM, 36 hr) was 36.65 ± 1.06 %, the “G2/M (%)” value (Caco2 cells [5]; Caco2, 2 μM, 36 hr) was 1.85 ± 0.5 % and the “S (%)” value (Caco2 cells [5]; Caco2, 2 μM, 36 hr) was 17.1 ± 2.12%. For the same molecule, the “Sub G1 (%)” value (Caco2 cells [5]; Caco2, 2 μM, 36 hr) was 40.1 ± 1.69 %, the “G0/G1 (%)” value (Caco2 cells [5]; Caco2, 2 μM, 48 hr) was 35.35 ± 2.47 % and the “G2/M (%)” value (Caco2 cells [5]; Caco2, 2 μM, 48 hr) was 3.55 ± 3.89 %. The “S (%)” value (Caco2 cells [5]; Caco2, 2 μM, 48 hr) was 18.05 ± 10.11%, the “Sub G1 (%)” value (Caco2 cells [5]; Caco2, 2 μM, 48 hr) was 37.55 ± 14.64 % and the “G0/G1 (%)” value (Caco2 cells [5]; Caco2, 5 μM, 36 hr) was 39.1 ± 5.66 %. For the same molecule, the “G2/M (%)” value (Caco2 cells [5]; Caco2, 5 μM, 36 hr) was 1.05 ± 0.21%, the “S (%)” value (Caco2 cells [5]; Caco2, 5 μM, 36 hr) was 12.5 ± 0.71% and the “Sub G1 (%)” value (Caco2 cells [5]; Caco2, 5 μM, 36 hr) was 42.6 ± 5.37 %. For the same molecule, the “G0/G1 (%)” value (Caco2 cells [5]; Caco2, 5 μM, 48 hr) was 36.7 ± 8.06 %, the “G2/M (%)” value (Caco2 cells [5]; Caco2, 5 μM, 48 hr) was 2.7 ± 2.95 % and the “S (%)” value (Caco2 cells [5]; Caco2, 5 μM, 48 hr) was 17.5 ± 10.47%. The “Sub G1 (%)” value (Caco2 cells [5]; Caco2, 5 μM, 48 hr) was 38.3 ± 24.47 %.
